# Measured values as given in ChEMBL document CHEMBL1154378, “Histamine H3 and H4 receptor affinity of branched 3-(1H-imidazol-4-yl)propyl N-alkylcarbamates” (Bioorg Med Chem Lett, 2009).
# What was measured:
# Histamine H3 receptor [1] = biological target: T1, Histamine H3 receptor (Homo sapiens, UniProt Q9Y5N1); assay: Displacement of […]iodoproxyfan from human histamine H3 receptor expressed in HEK293 cells; format: cell-based
# Homo sapiens = species on record: Homo sapiens; assay: Selectivity, ratio of Ki for human histaminee H4 receptor to Ki for human histamine H3 receptor
# Histamine H4 receptor [2] = biological target: T2, Histamine H4 receptor (Homo sapiens, UniProt Q9H3N8); assay: Displacement of [3H]histamine from human histamine H4 receptor expressed in HEK293 cells; format: cell-based
# T2 sequence (Q9H3N8 whole entry): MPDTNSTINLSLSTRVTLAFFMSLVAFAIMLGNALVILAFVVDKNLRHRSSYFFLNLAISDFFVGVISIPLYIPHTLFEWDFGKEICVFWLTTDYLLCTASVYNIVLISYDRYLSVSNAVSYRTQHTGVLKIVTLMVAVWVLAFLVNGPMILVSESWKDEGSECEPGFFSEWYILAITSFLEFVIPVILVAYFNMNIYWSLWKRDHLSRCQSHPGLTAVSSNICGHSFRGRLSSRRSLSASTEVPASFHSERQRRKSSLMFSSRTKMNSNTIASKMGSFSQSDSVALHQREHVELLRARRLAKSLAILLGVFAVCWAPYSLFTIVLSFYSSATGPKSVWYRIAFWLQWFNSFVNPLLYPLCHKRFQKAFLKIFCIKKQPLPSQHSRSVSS
# Histamine H3 receptor [3] = biological target: T1, Histamine H3 receptor; assay: Displacement of [125I]iodoproxyfan from human histamine H3 receptor expressed in CHO-K1 cells
# Histamine H4 receptor [4] = biological target: T2, Histamine H4 receptor; assay: Displacement of [3H]histamine from human histamine H4 receptor expressed in SF9 cells coexpressing Galphai2, Gbeta1gamma2
# Histamine H3 receptor [5] = biological target: Histamine H3 receptor (Rattus norvegicus, UniProt Q9QYN8); assay: Displacement of [3H]histamine from histamine H3 receptor in rat cerebral cortex; format: tissue-based
# Histamine H3 receptor (Rattus norvegicus, UniProt Q9QYN8), sequence (Q9QYN8 whole entry): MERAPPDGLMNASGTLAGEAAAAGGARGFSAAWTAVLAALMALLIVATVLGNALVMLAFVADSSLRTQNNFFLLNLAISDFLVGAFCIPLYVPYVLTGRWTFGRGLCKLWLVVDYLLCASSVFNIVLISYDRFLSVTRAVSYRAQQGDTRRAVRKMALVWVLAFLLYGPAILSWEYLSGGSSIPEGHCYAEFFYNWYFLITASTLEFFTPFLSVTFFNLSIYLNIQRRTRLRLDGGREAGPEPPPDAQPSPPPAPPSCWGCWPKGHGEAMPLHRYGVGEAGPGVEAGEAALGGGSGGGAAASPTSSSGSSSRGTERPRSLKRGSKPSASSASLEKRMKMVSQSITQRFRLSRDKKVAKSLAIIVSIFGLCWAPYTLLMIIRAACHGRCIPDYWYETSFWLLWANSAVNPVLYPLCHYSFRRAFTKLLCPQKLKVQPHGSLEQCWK
# T1 sequence (Q9Y5N1 whole entry): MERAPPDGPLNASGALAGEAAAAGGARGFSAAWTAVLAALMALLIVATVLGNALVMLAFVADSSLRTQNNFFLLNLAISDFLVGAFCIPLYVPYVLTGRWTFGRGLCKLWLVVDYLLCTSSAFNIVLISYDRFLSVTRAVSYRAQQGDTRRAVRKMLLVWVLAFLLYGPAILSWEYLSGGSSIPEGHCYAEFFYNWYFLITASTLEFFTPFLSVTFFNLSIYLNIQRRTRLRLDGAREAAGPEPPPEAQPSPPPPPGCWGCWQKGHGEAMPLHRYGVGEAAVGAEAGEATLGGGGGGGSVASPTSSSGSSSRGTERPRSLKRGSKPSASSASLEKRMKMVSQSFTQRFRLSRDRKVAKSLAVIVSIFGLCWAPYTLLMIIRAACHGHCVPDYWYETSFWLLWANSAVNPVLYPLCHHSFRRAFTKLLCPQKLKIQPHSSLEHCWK
Compound,Ratio Ki (Homo sapiens),Ki (Histamine H3 receptor [3]) [nM],Ki (Histamine H4 receptor [4]) [nM],other results
CCCCCC[C@@H](C)NC(=O)OCCCc1c[nH]cn1,–,–,–,Ki (Histamine H3 receptor [1]): 28 nM
CCCCC[C@H](C)NC(=O)OCCCc1c[nH]cn1,20,–,–,–
NC(=NCc1ccc(Cl)cc1)SCCCc1cnc[nH]1 [CLOBENPROPIT],–,–,–,Ki (Histamine H4 receptor [2]): 4.3 nM
CCCCC(CC)CNC(=O)OCCCc1cnc[nH]1 (racemic),–,37,779,–
CC(C)CCCC(C)NC(=O)OCCCc1cnc[nH]1 (racemic),–,75,–,Ki (Histamine H3 receptor [5]): 22 nM
CCCC[C@@H](C)NC(=O)OCCCc1cnc[nH]1,–,19,426,–
CCC(C)CCNC(=O)OCCCc1c[nH]cn1 (racemic),9,13,123,–
O=C(c1ccc(OCCCc2cnc[nH]2)cc1)C1CC1 [CIPROXIFAN],–,–,–,Ki (Histamine H4 receptor [2]): 612 nM
CCCCCC(C)NC(=O)OCCCc1c[nH]cn1 (racemic),–,52,–,–
CCCCC(C)NC(=O)OCCCc1c[nH]cn1 (racemic),24,29,695,–
CCCCC[C@H](C)NC(=O)OCCCc1cnc[nH]1,–,74,1460,–
CCCCC[C@@H](C)NC(=O)OCCCc1c[nH]cn1,16,–,–,–
CCCC[C@@H](C)NC(=O)OCCCc1c[nH]cn1,22,–,–,–
CCCCCCC(C)NC(=O)OCCCc1c[nH]cn1 (racemic),–,91,–,–
CCCC(C)NC(=O)OCCCc1c[nH]cn1 (racemic),–,21,–,–
CCC[C@@H](C)NC(=O)OCCCc1cnc[nH]1,–,15,–,–
CC[C@H](C)CNC(=O)OCCCc1c[nH]cn1,25,4.7,118,–
CCC(C)NC(=O)OCCCc1c[nH]cn1 (racemic),–,49,–,–
CCCC[C@H](C)NC(=O)OCCCc1cnc[nH]1,–,42,–,–
CCCCC[C@@H](C)NC(=O)OCCCc1cnc[nH]1,–,41,636,–
CC(C)CCC(C)NC(=O)OCCCc1cnc[nH]1 (racemic),–,30,–,–
CCCCCC[C@H](C)NC(=O)OCCCc1c[nH]cn1,–,–,–,Ki (Histamine H3 receptor [1]): 43 nM
CCCCC(CC)CNC(=O)OCCCc1c[nH]cn1 (racemic),21,–,–,–
CC[C@H](C)NC(=O)OCCCc1c[nH]cn1,–,31,–,–
CCCC(C)CNC(=O)OCCCc1c[nH]cn1 (racemic),20,8.3,162,–
CC[C@@H](C)NC(=O)OCCCc1c[nH]cn1,24,12,290,–
